Patent US9993459B2, “Selective HDAC6 inhibitors and uses thereof” (Universiteit Gent, priority 2015, dated 2018)
Read-outs that look alike come from different tables or passages of the source.

Key:
[1] = test system: glucocorticoid receptor, GR; assay: GRE-dependent luciferase reporter p(GRE)2-50-luc in A549 cells; format: cell-based; conditions: for DEX-activated GR-driven gene expression (transcriptional activity of GR): A549, 1 μM or 10 μM, 1 h pre-incubation then DEX 1 μM 5 h
HDAC6 = biological target: T1, HDAC6 (Homo sapiens, UniProt Q9UBN7); assay: In vitro HDAC6 inhibition; format: biochemical; conditions: for inhibition at 10 µM: HDAC6, 10 μM
T1 sequence (Q9UBN7 1-1215): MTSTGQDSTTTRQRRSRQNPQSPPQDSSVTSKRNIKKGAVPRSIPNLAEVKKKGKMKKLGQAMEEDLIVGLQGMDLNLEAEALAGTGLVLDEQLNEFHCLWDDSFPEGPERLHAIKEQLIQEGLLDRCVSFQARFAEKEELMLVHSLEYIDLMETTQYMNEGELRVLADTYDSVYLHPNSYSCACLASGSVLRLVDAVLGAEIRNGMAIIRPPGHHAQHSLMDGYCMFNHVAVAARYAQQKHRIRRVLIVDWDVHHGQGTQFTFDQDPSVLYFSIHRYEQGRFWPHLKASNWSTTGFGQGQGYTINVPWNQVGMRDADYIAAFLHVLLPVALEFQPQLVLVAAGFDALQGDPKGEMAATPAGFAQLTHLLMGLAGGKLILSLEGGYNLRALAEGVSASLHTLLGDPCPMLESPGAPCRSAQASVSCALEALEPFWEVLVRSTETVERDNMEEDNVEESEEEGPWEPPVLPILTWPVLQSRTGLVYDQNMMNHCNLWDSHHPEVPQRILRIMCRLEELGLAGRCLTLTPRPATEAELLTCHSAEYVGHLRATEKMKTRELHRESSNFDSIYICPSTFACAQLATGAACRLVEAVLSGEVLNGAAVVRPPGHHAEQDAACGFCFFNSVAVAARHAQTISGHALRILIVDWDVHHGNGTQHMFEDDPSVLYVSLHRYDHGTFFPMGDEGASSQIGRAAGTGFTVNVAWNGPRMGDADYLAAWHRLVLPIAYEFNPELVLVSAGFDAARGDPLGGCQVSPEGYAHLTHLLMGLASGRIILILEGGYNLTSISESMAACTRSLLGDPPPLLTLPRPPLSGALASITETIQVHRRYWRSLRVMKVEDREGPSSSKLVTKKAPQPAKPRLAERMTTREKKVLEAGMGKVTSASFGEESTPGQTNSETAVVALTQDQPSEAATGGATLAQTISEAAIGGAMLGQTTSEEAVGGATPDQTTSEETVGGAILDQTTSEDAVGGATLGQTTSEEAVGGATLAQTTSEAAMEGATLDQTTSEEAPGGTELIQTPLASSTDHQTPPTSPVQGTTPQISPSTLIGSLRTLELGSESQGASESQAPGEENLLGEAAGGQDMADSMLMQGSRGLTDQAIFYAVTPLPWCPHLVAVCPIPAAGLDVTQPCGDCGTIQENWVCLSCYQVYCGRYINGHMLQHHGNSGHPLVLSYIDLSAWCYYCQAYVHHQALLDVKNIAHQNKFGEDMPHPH

HDAC4 = HDAC4 (Homo sapiens, UniProt P56524); assay: In vitro HDAC isozyme selectivity screen: HDAC4; format: biochemical; conditions: for IC50: Table 2
Sequence of HDAC4 (P56524 whole entry, species assumed): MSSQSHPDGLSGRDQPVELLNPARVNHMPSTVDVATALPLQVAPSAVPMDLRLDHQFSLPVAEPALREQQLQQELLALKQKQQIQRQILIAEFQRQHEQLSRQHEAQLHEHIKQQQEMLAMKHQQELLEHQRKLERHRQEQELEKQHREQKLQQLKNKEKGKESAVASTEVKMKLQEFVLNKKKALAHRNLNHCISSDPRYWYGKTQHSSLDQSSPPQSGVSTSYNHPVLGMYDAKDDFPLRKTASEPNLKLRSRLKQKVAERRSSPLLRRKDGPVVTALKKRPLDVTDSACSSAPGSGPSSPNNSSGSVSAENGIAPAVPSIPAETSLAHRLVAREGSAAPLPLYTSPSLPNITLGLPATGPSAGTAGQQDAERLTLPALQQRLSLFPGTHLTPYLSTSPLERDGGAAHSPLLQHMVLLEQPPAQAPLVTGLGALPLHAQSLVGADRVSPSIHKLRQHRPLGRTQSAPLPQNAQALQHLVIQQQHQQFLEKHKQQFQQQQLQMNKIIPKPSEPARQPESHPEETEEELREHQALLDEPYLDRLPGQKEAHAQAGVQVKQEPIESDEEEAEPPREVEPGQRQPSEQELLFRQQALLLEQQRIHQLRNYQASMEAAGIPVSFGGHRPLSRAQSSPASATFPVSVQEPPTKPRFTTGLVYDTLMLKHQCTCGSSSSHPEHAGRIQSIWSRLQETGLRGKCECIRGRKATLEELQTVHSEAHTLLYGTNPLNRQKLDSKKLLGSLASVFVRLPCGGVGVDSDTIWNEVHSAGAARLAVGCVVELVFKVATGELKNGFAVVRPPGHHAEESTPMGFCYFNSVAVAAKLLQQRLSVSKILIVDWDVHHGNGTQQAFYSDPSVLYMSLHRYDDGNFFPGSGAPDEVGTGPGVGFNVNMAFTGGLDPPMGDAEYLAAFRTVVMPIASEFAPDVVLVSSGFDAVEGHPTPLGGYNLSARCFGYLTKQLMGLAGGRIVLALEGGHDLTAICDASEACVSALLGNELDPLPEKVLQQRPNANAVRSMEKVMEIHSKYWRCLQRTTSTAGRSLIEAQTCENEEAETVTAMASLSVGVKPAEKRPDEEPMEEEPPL

HDAC7 = biological target: T2, HDAC7 (Homo sapiens, UniProt Q8WUI4); assay: In vitro HDAC isozyme selectivity screen: HDAC7; format: biochemical; conditions: for IC50: Table 2
T2 sequence (Q8WUI4 1-952): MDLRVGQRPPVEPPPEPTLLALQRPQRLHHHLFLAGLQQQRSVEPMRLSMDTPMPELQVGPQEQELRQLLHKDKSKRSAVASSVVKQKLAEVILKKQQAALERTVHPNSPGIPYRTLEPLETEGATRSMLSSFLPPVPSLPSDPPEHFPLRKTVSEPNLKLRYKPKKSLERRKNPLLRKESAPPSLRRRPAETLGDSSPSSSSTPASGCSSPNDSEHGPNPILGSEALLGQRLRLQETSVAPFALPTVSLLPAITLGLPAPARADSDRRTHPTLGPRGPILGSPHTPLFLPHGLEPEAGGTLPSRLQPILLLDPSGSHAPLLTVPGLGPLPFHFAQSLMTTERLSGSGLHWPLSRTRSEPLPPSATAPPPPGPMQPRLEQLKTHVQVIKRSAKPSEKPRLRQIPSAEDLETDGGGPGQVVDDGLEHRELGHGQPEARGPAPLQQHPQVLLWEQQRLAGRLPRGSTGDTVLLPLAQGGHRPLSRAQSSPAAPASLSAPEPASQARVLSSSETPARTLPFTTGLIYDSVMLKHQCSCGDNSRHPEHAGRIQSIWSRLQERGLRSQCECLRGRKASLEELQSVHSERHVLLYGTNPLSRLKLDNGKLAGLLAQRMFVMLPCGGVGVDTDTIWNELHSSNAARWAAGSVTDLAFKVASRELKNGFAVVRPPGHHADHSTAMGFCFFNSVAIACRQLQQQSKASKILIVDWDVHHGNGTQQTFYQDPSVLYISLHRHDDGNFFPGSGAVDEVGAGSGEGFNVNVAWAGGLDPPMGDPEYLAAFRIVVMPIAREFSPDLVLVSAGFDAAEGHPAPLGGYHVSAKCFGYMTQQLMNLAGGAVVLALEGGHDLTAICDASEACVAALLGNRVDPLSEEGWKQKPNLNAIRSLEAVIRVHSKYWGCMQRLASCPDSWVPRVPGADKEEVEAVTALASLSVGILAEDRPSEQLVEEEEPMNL

HDAC3 = HDAC3 (Homo sapiens, UniProt O15379); assay: In vitro HDAC isozyme selectivity screen: HDAC3; format: biochemical
Sequence of HDAC3 (O15379 whole entry, species assumed): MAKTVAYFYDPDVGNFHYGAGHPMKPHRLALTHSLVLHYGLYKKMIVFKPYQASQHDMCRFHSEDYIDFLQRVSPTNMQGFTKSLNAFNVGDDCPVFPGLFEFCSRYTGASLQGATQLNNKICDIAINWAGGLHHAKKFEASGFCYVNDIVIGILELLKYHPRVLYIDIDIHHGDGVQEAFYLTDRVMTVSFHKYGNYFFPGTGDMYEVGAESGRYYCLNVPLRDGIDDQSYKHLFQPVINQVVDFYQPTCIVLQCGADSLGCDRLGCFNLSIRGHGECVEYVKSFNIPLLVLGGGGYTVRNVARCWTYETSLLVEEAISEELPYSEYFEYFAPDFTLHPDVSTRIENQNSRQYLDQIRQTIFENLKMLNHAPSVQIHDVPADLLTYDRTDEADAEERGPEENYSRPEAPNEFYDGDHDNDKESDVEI
Sequence of HDAC3 (Q9Y618 395-489 partner limits assumed, species assumed): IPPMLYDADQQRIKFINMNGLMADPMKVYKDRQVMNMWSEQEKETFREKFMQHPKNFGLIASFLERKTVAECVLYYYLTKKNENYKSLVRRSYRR

| Structure (SMILES) | DEX-activated GR-driven gene expression (transcriptional activity of GR) [1] | enhancement of GR-driven gene expression ([1]; A549, 1 μM, with DEX 1 μM) | inhibition at 10 µM (HDAC6) [%] | IC50 (HDAC6; HDAC6, Table 1, read-out: IC50) [µM] | IC50 (HDAC4) [µM] | IC50 (HDAC7) [µM] | effect at 100 μM, HDAC3 (HDAC3; 100 μM) | IC50 (HDAC6; Table 2, read-out: IC50 HDAC6) [µM] | effect at 100 μM, HDAC4 (HDAC4; 100 μM) | effect at 100 μM, HDAC7 (HDAC7; 100 μM) | IC50 (HDAC3; Table 2) [µM] |
| --- | --- | --- | --- | --- | --- | --- | --- | --- | --- | --- | --- |
| O=C(NO)c1ccc(NCc2csc3ccccc23)cc1 [Compound 7a, 3-[(4-hydroxycarbamoylphenyl)aminomethyl]benzothiophene] | leaves the transcriptional activity of GR unhampered | able to significantly enhance GR-driven gene expression | 99.8 | 0.014 | 10 | 5.2 |  |  |  |  |  |
| O=C(NO)c1ccc(NCc2csc3ccc(Br)cc23)cc1 [Compound 7b, 5-bromo-3-[(4-hydroxycarbamoylphenyl)aminomethyl]-benzothiophene] | leaves the transcriptional activity of GR unhampered |  | 99.2 | 0.037 | > 100 |  | less than 50% | 0.037 | less than 50% | less than 50% |  |
| O=C(NO)c1ccc(NCc2csc3cc(Br)ccc23)cc1 [Compound 13a, 6-bromo-3-[(4-hydroxycarbamoylphenyl)aminomethyl]-benzothiophene] |  |  | 99.3 | 0.064 | 31 | 12 |  |  |  |  | 6.6 |
